We go through 17 compounds from patent US20240300935A1, “Nitrogen Oxide Donors of Beraprost Derivative and the Pharmaceutical Compositions with the Use Thereof” (GUANGZHOU KEMROCMED CO., LTD., priority 2021, published 2024).

In assay [1] the test system is platelet aggregation induced by ADP. Put plainly: Antiplatelet aggregation effect, ADP-induced, turbidimetry in platelet-rich plasma. Format: cell-based. To be noted: Homo sapiens, 2 min; platelet rich plasma of healthy subjects; 25 μL of 50 nM compound solution in 225 μL plasma, 37° C. 2 min; ADP final 2 μM; read-out: The rate of platelet aggregation inhibition. The method, then: • 1) Experimental material: ADP, epinephrine, collagen (bilBio) • 2) Experimental method: blood samples provided by healthy subjects were mixed blood with 3.8% citric acid solution and centrifuged at 160 r/min to obtain platelet-rich plasma. To calibrate the data, the obtained platelet-rich plasma was further centrifuged at 2000 r/min to obtain platelet-poor plasma, stored in a −20° C. refrigerator. Testing was performed using Born I's turbiometry. 225 μL of platelet rich plasma was added to the reaction cup, the embodiment compound was configured as 50 nM solution (25 m M Tris-acetate and 120 m M N a Cl), 25 μL of embodiment compound solution was added and after incubation at 37° C. for 2 min, 5 μL of ADP (final concentration 2 μM) was added for platelet aggregation induction. To assess the degree of platelet aggregation, the maximum absorbance value took the data after ADP, thus calculating the inhibition rate of ADP-induced platelet aggregation by each embodiment compound. According to the data in Table 6 below, the compounds of the present application embodiment all have a good effect of inhibiting the platelet aggregation induced by ADP.

Assay [2] in a line: In vitro NO release test (Griess method). To be noted: 200 μM test compound solution mixed with 200 μM L-cysteine solution, 37° C. As for the experimental part:
NO was transiently oxidized in aqueous solution using released NO by Griess' method, NO^2− And Griess reagent form a complex, which has strong UV uptake at 540 nm to determine the amount of NO released by the compound. • 1) Preparation of solution: blank solution: 10 mL DMSO and 190 m L PBS mixed; G riess Reagent: sulfonamide (4.0 g), N-(1-naphthalyl) ethylenediamine dihydrochloride (0.2 g) and 10 mL 85% H3PO4 dissolved in 90 mL of distilled water, Blow until clear solution; L-cysteine solution: after accurate weighing of L-cysteine, Add a certain amount of PBS, Prepare a weighed 200 μM solution; Test compound solution: the exact weighing of the test compound, Dissolved in D MSO and diluted to a concentration of 1 mM, Then, when diluted in PBS, To a concentration of 200 μM.
2) Formulation of standard curve equation: prepare sodium nitrite solution concentration: 0 ,0 , 1, 3, 6, 12.5, 25, 50, 100 μmol/L, 150 μL of each concentration, add 50 μL of Griess reagent mix, incubated in 37° C. constant temperature shaker for 30 min, the plate reader measured each tube absorbance at 540 nm, after subtracting the blank solution reading, the standard curve equation . . . 78.56.13.25 • 3) Test compound test: mix 2 mL of the test compound solution and L-cysteine solution, incubate in 37° C. constant temperature shakers for 120 min, take 150 μL of each mixture, add 50 μL of Griess reagent, then incubate in 37° C. constant temperature shaker for 30 min, the microplate measured each tube absorbance at 540 nm, then subtract the blank solution reading and substitute the value into the standard curve equation to obtain NO release.

SMILES strings stand for the structures.

The inhibition is the drop in the measured response relative to a control, in per cent. Turning to `CC#CCC(C)[C@@H](O)/C=C/[C@H]1[C@@H]2c3cccc(CCCC(=O)OCCOC(=O)c4cccc(CO[N+](=O)[O-])c4)c3O[C@@H]2C[C@@H]1O` (stereo partly shown) [Compound 25], in assay [1], the inhibition at 0.005 µM is 35%. Also, the “120 min NO^2−” value in assay [2] worked out at 10.7 µM.

With `CC#CCC(C)[C@@H](O)/C=C/[C@H]1[C@@H]2c3cccc(CCCC(=O)OCOC(=O)O[N+](=O)[O-])c3O[C@@H]2C[C@@H]1O` (stereo partly shown) [Compound 9], the inhibition at 0.005 µM in assay [1] was found to be 52%. In addition, the “120 min NO^2−” value in assay [2] was 18.2 µM.

For the compound `CC#CCC(C)[C@@H](O)/C=C/[C@H]1[C@@H]2c3cccc(CCCC(=O)OCCCc4ccc(CO[N+](=O)[O-])cc4)c3O[C@@H]2C[C@@H]1O` (stereo partly shown) [Compound 11], the inhibition at 0.005 µM in assay [1] was 67%. Also, in assay [2], the “120 min NO^2−” value was determined as 10.1 µM.

As to `CC#CCC(C)[C@@H](O)/C=C/[C@H]1[C@@H]2c3cccc(CCCC(=O)OCOc4c(S(=O)(=O)c5ccccc5)no[n+]4[O-])c3O[C@@H]2C[C@@H]1O` (stereo partly shown) [Compound 32], in assay [1], the inhibition at 0.005 µM is 55%. Besides, the “120 min NO^2−” value in assay [2] amounted to 20.4 µM.

For the compound `CC#CCC(C)[C@@H](O)/C=C/[C@H]1[C@@H]2c3cccc(CCCC(=O)OCOCC(CO[N+](=O)[O-])O[N+](=O)[O-])c3O[C@@H]2C[C@@H]1O` (stereo partly shown) [Compound 30], the inhibition at 0.005 µM in assay [1] was 52%. Also, in assay [2], the “120 min NO^2−” value came to 17.8 µM.

`CC#CCC(C)[C@@H](O)/C=C/[C@H]1[C@@H]2c3cccc(CCCC(=O)OCCOCCO[N+](=O)[O-])c3O[C@@H]2C[C@@H]1O` (stereo partly shown) [Compound 8]: the inhibition at 0.005 µM in assay [1] was determined as 61%. Further, the “120 min NO^2−” value in assay [2] was 14.8 µM.

Consider `CC#CCC(C)[C@@H](O)/C=C/[C@H]1[C@@H]2c3cccc(CCCC(=O)OCOCCCO[N+](=O)[O-])c3O[C@@H]2C[C@@H]1O` (stereo partly shown) [Compound 7], for which the inhibition at 0.005 µM in assay [1] is 44%. Besides, the “120 min NO^2−” value in assay [2] is 17.7 µM.

Turning to `CC#CCC(C)[C@@H](O)/C=C/[C@H]1[C@@H]2c3cccc(CCCC(=O)OCOCCO[N+](=O)[O-])c3O[C@@H]2C[C@@H]1O` (stereo partly shown) [Compound 6], the inhibition at 0.005 µM in assay [1] is 39%. The “120 min NO^2−” value in assay [2] turned out to be 17.8 µM.

Consider `CC#CCC(C)[C@@H](O)/C=C/[C@H]1[C@@H]2c3cccc(CCCC(=O)OCOC(=O)CCCCO[N+](=O)[O-])c3O[C@@H]2C[C@@H]1O` (stereo partly shown) [Compound 16], for which the inhibition at 0.005 µM in assay [1] was found to be 81%. Besides, in assay [2], the “120 min NO^2−” value is 12.1 µM.

`CC#CCC(C)[C@@H](O)/C=C/[C@H]1[C@@H]2c3cccc(CCCC(=O)OCOC(=O)CCCO[N+](=O)[O-])c3O[C@@H]2C[C@@H]1O` (stereo partly shown) [Compound 12]: the inhibition at 0.005 µM in assay [1] stood at 42%. Further, the “120 min NO^2−” value in assay [2] was found to be 8.5 µM.

`CC#CCC(C)[C@@H](O)/C=C/[C@H]1[C@@H]2c3cccc(CCCC(=O)OCCOC(=O)C(C)CO[N+](=O)[O-])c3O[C@@H]2C[C@@H]1O` (stereo partly shown) [Compound 21]: in assay [1], the inhibition at 0.005 µM was 81%. Besides, the “120 min NO^2−” value in assay [2] turned out to be 11.1 µM.

With `CC#CCC(C)[C@@H](O)/C=C/[C@H]1[C@@H]2c3cccc(CCCC(=O)OCCCOC(=O)CCO[N+](=O)[O-])c3O[C@@H]2C[C@@H]1O` (stereo partly shown) [Compound 18], the inhibition at 0.005 µM in assay [1] was found to be 66%. For the same compound, the “120 min NO^2−” value in assay [2] worked out at 8.0 µM.

`CC#CCC(C)[C@@H](O)/C=C/[C@H]1[C@@H]2c3cccc(CCCC(=O)OCCCO[N+](=O)[O-])c3O[C@@H]2C[C@@H]1O` (stereo partly shown) [Compound 2]: the inhibition at 0.005 µM in assay [1] stood at 66%. Besides, the “120 min NO^2−” value in assay [2] was 14.3 µM.

Regarding `CC#CCC(C)[C@@H](O)/C=C/[C@H]1[C@@H]2c3cccc(CCCC(=O)OCCCCc4ccc(CO[N+](=O)[O-])cc4)c3O[C@@H]2C[C@@H]1O` (stereo partly shown) [Compound 13], the inhibition at 0.005 µM in assay [1] came out at 61%. Besides, the “120 min NO^2−” value in assay [2] turned out to be 10.1 µM.

`CC#CCC(C)[C@@H](O)/C=C/[C@H]1[C@@H]2c3cccc(CCCC(=O)OCCCCOC(=O)CO[N+](=O)[O-])c3O[C@@H]2C[C@@H]1O` (stereo partly shown) [Compound 23]: in assay [1], the inhibition at 0.005 µM amounted to 56%. The “120 min NO^2−” value in assay [2] came to 15.5 µM.

For `CC#CCC(C)[C@@H](O)/C=C/[C@H]1[C@@H]2c3cccc(CCCC(=O)OCCCCCCO[N+](=O)[O-])c3O[C@@H]2C[C@@H]1O` (stereo partly shown) [Compound 5], the inhibition at 0.005 µM in assay [1] amounted to 64%. Besides, the “120 min NO^2−” value in assay [2] is 11.8 µM.

As to `CC#CCC(C)[C@@H](O)/C=C/[C@H]1[C@@H]2c3cccc(CCCC(=O)OCCCCOC(=O)CCO[N+](=O)[O-])c3O[C@@H]2C[C@@H]1O` (stereo partly shown) [Compound 19], the inhibition at 0.005 µM in assay [1] came out at 69%. For the same compound, in assay [2], the “120 min NO^2−” value was 11.3 µM.
